ChEMBL document CHEMBL1150977, “A quantitative analysis of kinase inhibitor selectivity” (Nat Biotechnol, 2008)

How the values were obtained:
[1] = target: Ribosomal protein S6 kinase alpha-4 (Homo sapiens, UniProt O75676)
[2] = target: T1, Serine/threonine-protein kinase tousled-like 1 (Homo sapiens, UniProt Q9UKI8)
T1 sequence (Q9UKI8 whole entry): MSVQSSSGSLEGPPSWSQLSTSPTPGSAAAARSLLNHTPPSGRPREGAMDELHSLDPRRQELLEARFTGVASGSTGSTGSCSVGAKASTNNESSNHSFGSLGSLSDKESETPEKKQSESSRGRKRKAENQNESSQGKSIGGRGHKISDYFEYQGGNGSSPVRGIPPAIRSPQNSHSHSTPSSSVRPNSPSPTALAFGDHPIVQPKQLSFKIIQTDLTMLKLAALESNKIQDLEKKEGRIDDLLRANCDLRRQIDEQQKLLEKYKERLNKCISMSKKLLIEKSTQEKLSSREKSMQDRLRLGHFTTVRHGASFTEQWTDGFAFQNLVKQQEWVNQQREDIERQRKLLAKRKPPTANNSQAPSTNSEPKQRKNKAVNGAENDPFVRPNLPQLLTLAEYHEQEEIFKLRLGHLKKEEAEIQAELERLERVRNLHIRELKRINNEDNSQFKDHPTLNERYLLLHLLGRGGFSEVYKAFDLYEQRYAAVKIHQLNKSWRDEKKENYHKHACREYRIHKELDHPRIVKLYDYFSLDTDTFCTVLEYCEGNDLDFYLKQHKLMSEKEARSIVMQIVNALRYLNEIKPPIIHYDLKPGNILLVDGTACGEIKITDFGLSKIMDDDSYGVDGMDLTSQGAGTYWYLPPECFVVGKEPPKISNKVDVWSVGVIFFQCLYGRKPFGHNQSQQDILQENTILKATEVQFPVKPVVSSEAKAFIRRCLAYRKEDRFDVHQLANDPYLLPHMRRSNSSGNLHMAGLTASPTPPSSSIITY

[3] = target: Mitogen-activated protein kinase 10 (Homo sapiens, UniProt P53779)
[4] = target: T2, Cyclin-dependent kinase 11A (Homo sapiens, UniProt Q9UQ88)
T2 sequence (Q9UQ88 whole entry): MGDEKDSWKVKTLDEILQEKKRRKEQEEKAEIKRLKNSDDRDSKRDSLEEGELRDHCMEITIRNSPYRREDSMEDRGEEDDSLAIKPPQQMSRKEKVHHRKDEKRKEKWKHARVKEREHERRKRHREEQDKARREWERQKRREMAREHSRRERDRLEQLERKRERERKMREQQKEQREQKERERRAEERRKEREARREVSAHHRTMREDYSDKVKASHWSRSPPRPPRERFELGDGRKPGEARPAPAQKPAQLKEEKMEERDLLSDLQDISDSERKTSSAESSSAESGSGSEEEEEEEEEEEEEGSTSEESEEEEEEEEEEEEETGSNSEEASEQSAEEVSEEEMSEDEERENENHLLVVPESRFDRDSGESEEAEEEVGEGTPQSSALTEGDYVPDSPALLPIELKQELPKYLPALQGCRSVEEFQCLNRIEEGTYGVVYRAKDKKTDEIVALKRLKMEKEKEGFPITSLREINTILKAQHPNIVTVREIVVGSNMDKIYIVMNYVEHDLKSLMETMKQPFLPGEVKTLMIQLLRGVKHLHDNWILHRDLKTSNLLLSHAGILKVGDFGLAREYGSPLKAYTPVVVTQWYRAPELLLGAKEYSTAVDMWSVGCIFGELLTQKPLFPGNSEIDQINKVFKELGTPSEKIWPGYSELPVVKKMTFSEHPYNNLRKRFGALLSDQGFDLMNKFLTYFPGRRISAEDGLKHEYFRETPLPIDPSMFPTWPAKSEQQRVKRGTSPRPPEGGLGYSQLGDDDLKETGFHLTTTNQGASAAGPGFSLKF

[5] = target: Mast/stem cell growth factor receptor Kit (Homo sapiens, UniProt P10721, T670I/V559D)
[6] = target: Mitogen-activated protein kinase kinase kinase 4 (Homo sapiens, UniProt Q9Y6R4)
[7] = target: Casein kinase II subunit alpha (Homo sapiens, UniProt P68400)
[8] = target: Mitogen-activated protein kinase 4 (Homo sapiens, UniProt P31152)
[9] = target: Serine/threonine-protein kinase 33 (Homo sapiens, UniProt Q9BYT3)
[10] = target: Mitogen-activated protein kinase 8 (Homo sapiens, UniProt P45983)
[11] = target: Calcium/calmodulin-dependent protein kinase kinase 1 (Homo sapiens, UniProt Q8N5S9)
[12] = target: Serine/threonine-protein kinase PAK 4 (Homo sapiens, UniProt O96013)
[13] = target: Receptor-interacting serine/threonine-protein kinase 2 (Homo sapiens, UniProt O43353)
[14] = target: Tyrosine-protein kinase HCK (Homo sapiens, UniProt P08631)
[15] = target: Protein-tyrosine kinase 6 (Homo sapiens, UniProt Q13882)
[16] = target: Vascular endothelial growth factor receptor 2 (Homo sapiens, UniProt P35968)
Activin receptor type-2A = Activin receptor type-2A (Homo sapiens, UniProt P27037)
[17] = target: Cyclin-dependent kinase 17 (Homo sapiens, UniProt Q00537)
[18] = target: Phosphatidylinositol 4-phosphate 5-kinase type-1 alpha (Homo sapiens, UniProt Q99755)
[19] = target: Mitogen-activated protein kinase kinase kinase kinase 1 (Homo sapiens, UniProt Q92918)
[20] = target: Vascular endothelial growth factor receptor 3 (Homo sapiens, UniProt P35916)
[21] = target: Tyrosine-protein kinase ABL1 (Homo sapiens, UniProt P00519, Y253F)

Molecule `COCC(=O)NC/C=C/c1ccc2ncnc(Nc3ccc(Oc4ccc(C)nc4)c(C)c3)c2c1` [CP-724714] has a Kd [1] of over 10 µM, a Kd [2] of over 10 µM and a Kd [3] of over 10 µM. It also gave a Kd [4] of over 10 µM, a Kd [5] of over 10 µM and a Kd [6] of over 10 µM. It also gave a Kd [7] of over 10 µM, a Kd [8] of over 10 µM and a Kd [9] of over 10 µM. The Kd [10] was over 10 µM, the Kd [11] was over 10 µM and the Kd [12] was over 10 µM. For the same molecule, the Kd [13] was over 10 µM, the Kd [14] was over 10 µM and the Kd [15] was over 10 µM. It also gave a Kd [16] of over 10 µM, a Kd (Activin receptor type-2A) of over 10 µM and a Kd [17] of over 10 µM. For the same molecule, the Kd [18] was over 10 µM, the Kd [19] was over 10 µM and the Kd [20] was over 10 µM. It also gave a Kd [21] of over 10 µM.

With `Nc1nc(Nc2ccc(S(N)(=O)=O)cc2)nn1C(=O)c1c(F)cccc1F` [JNJ-7706621] the Kd [1] was over 10 µM, the Kd [6] was over 10 µM and the Kd [7] was over 10 µM. It also gave a Kd [8] of 1.6 µM, a Kd [9] of over 10 µM and a Kd [13] of over 10 µM. The Kd [15] was over 10 µM, the Kd [18] was 9.2 µM and the Kd [19] was 0.12 µM.

With `CCOc1cc2ncc(C#N)c(Nc3ccc(F)c(Cl)c3)c2cc1NC(=O)/C=C/CN(C)C` [PELITINIB] the Kd [1] was over 10 µM, the Kd [2] was over 10 µM and the Kd [3] was over 10 µM. For the same molecule, the Kd [4] was over 10 µM, the Kd [5] was over 10 µM and the Kd [7] was over 10 µM. For the same molecule, the Kd [8] was over 10 µM, the Kd [10] was over 10 µM and the Kd [11] was 5.1 µM. The Kd [12] was over 10 µM, the Kd [13] was over 10 µM and the Kd [15] was over 10 µM. The Kd [16] was over 10 µM, the Kd (Activin receptor type-2A) was over 10 µM and the Kd [17] was over 10 µM. The Kd [18] was over 10 µM and the Kd [20] was over 10 µM.

In the case of `Oc1ccc(-c2nc(-c3ccncc3)c(-c3ccc(F)cc3)[nH]2)cc1` [SB-202190], the Kd [1] is reported as over 10 µM, the Kd [2] is reported as over 10 µM and the Kd [3] is reported as 0.042 µM. It also gave a Kd [4] of over 10 µM, a Kd [5] of over 10 µM and a Kd [6] of over 10 µM. It also gave a Kd [7] of over 10 µM, a Kd [8] of over 10 µM and a Kd [9] of over 10 µM. The Kd [10] was 2.4 µM, the Kd [11] was over 10 µM and the Kd [12] was over 10 µM. It also gave a Kd [14] of over 10 µM, a Kd [15] of 6.8 µM and a Kd [16] of over 10 µM. It also gave a Kd (Activin receptor type-2A) of over 10 µM, a Kd [17] of over 10 µM and a Kd [18] of over 10 µM. For the same molecule, the Kd [19] was over 10 µM, the Kd [20] was over 10 µM and the Kd [21] was over 10 µM.

Work on `NC(=O)c1ccc(-c2nc(-c3ccc4c(c3)OCO4)c(-c3ccccn3)[nH]2)cc1` [SB-431542] yielded a Kd [1] of over 10 µM, a Kd [2] of over 10 µM and a Kd [3] of over 10 µM. It also gave a Kd [4] of over 10 µM, a Kd [5] of over 10 µM and a Kd [6] of over 10 µM. For the same molecule, the Kd [7] was over 10 µM, the Kd [8] was over 10 µM and the Kd [9] was over 10 µM. It also gave a Kd [10] of over 10 µM, a Kd [11] of over 10 µM and a Kd [12] of over 10 µM. The Kd [13] was 3.4 µM, the Kd [14] was over 10 µM and the Kd [15] was over 10 µM. It also gave a Kd [16] of over 10 µM, a Kd (Activin receptor type-2A) of over 10 µM and a Kd [17] of over 10 µM. The Kd [18] was over 10 µM, the Kd [19] was over 10 µM and the Kd [20] was over 10 µM. For the same molecule, the Kd [21] was over 10 µM.
